Laboratory results taken from US20230132256A1, “COMBINATION THERAPY” (ADC THERAPEUTICS SA, priority 2018, published 2023).

System: CT26 syngeneic model (subcutaneous CT26 tumors)
Test: In vivo efficacy study testing combination of sur301 (sADC×25) with gemcitabine in the CT26 syngeneic model
Design: species or system female BALB/c mice
Details: Gemcitabine 80 mg/kg i.p. q3d×4 (Days 1, 4, 7, 10), single agent, animals of n=10/group
Method: On the day of implant, cultured CT26 cells were harvested during log phase growth and resuspended in PBS at a concentration of 3×10^6 cells/mL. Tumors were initiated by subcutaneously implanting 3×10^5 CT26 cells (0.1 mL suspension) into the right flank of each test animal. Tumors were monitored as their volumes approached the target range of 80-120 mm^3. Tumor were measured in two dimensions using calipers, and volume was calculated using the formula:
Tumor Volume (mm^3)=w2×l/2
where w=width and l=length, in mm, of the tumor. Tumor weight may be estimated with the assumption that 1 mg is equivalent to 1 mm3 of tumor volume.
Fifteen days after tumor cell implantation, on Day 1 of the study, animals were sorted into groups (n=10/group) with individual tumor volumes of 75 to 144 mm^3, and group mean tumor volumes of 104-106 mm^3.
All doses were administered intraperitoneally (i.p.). The dosing volume was 0.2 mL per 20 grams of body weight (10 mL/kg), and was scaled to the body weight of each individual animal.
Gemcitabine was administered at 80 mg/kg q3d×4 which corresponded to Days 1, 4, 7 and 10.
The antibody component of ADC×25 specifically binds human CD25. […]
Tumors were measured using calipers twice per week, and each animal was euthanized when its tumor reached the endpoint volume of 2000 mm^3 or at the end of the study (Day 56), whichever came first.
Response Table Criteria: • Treatment may cause partial regression (PR) or complete regression (CR) of the tumor in an animal. • In a PR response, the tumor volume is 50% or less of its Day 1 volume for three consecutive measurements during the course of the study, and equal to or greater than 13.5 mm3 for one or more of these three measurements. • In a CR response, the tumor volume is less than 13.5 mm3 for three consecutive measurements during the study. • Any animal with a CR response at the end of the study was additionally classified as a tumor-free survivor (TFS). • Animals were scored only once during the study for a PR or CR event and only as CR if both PR and CR criteria were satisfied. […]

Nc1ccn([C@@H]2O[C@H](CO)[C@@H](O)C2(F)F)c(=O)n1 [Gemcitabine]
0: CR (complete regression) | PR (partial regression) | TFS (tumor-free survivor) (end of study Day 56)
